Reference: the kinase profiling compilation of Christmann-Franck et al. (2016)

Columns and labels:
Assay in all cases: KINOMEscan competition binding
Conditions in all cases: compound 1.0 µM
[1] = biological target: TGFBR2 (human) (UniProt P37173)
[2] = biological target: CAMK2G (human) (UniProt Q13555)
[3] = biological target: FGFR1 (human) (UniProt P11362)
[4] = biological target: SIK2 (human) (UniProt Q9H0K1)
[5] = biological target: CSF1R (human) (UniProt P07333)
[6] = biological target: MAP4K4 (human) (UniProt O95819)
[7] = biological target: RIOK2 (human) (UniProt Q9BVS4)
[8] = biological target: TSSK1B (human) (UniProt Q9BXA7)
[9] = biological target: PLK1 (human) (UniProt P53350)
[10] = biological target: STK36 (human) (UniProt Q9NRP7)
[11] = biological target: CDKL5 (human) (UniProt O76039)
[12] = biological target: CHUK (human) (UniProt O15111)
[13] = biological target: PIK3CD (human) (UniProt O00329)
[14] = biological target: MLTK (human) (UniProt Q9NYL2)
[15] = biological target: RPS6KA3 KD1 (human) (UniProt P51812)
[16] = biological target: NUAK2 (human) (UniProt Q9H093)
[17] = biological target: NEK3 (human) (UniProt P51956)
[18] = biological target: EPHA7 (human) (UniProt Q15375)
[19] = biological target: PRKD2 (human) (UniProt Q9BZL6)
[20] = biological target: CDK8 (human) (UniProt P49336)
[21] = biological target: DCLK1 (human) (UniProt O15075)
[22] = tested on: ABL1 (human), P00519 [M351T]
[23] = biological target: FER (human) (UniProt P16591)
[24] = biological target: YSK4 (human) (UniProt Q56UN5)
[25] = tested on: PIK3CA (human), P42336 [E545A]
[26] = biological target: DCLK2 (human) (UniProt Q8N568)
[27] = biological target: RPS6KA4 KD1 (human) (UniProt O75676)
[28] = biological target: STK38 (human) (UniProt Q15208)
[29] = biological target: TNNI3K (human) (UniProt Q59H18)
[30] = biological target: CAMK2A (human) (UniProt Q9UQM7)
[31] = biological target: AURKB (human) (UniProt Q96GD4)
[32] = biological target: IKBKB (human) (UniProt O14920)
[33] = tested on: LRRK2 (human), Q5S007 [G2019S]
[34] = biological target: CSNK1G3 (human) (UniProt Q9Y6M4)
[35] = biological target: MYO3A (human) (UniProt Q8NEV4)
[36] = biological target: LATS1 (human) (UniProt O95835)
[37] = biological target: RAF1 (human) (UniProt P04049)
[38] = tested on: PIK3CA (human), P42336 [I800L]
[39] = biological target: MAP2K3 (human) (UniProt P46734)
[40] = biological target: KIT (human) (UniProt P10721)
[41] = biological target: MAP2K4 (human) (UniProt P45985)
[42] = biological target: ABL2 (human) (UniProt P42684)
[43] = biological target: CAMK1G (human) (UniProt Q96NX5)

Chain of MAP2K3 (human) (P46734 whole entry, looked up): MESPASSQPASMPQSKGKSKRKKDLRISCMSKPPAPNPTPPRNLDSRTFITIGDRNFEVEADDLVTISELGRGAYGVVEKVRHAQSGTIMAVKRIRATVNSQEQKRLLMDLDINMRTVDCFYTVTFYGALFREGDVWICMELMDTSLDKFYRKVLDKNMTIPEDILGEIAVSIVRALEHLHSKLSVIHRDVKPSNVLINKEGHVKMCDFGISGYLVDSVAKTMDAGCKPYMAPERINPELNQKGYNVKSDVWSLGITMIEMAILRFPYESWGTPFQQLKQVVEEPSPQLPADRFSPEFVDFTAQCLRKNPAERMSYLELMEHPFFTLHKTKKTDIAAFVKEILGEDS
Chain of DCLK2 (human) (Q8N568 whole entry, looked up): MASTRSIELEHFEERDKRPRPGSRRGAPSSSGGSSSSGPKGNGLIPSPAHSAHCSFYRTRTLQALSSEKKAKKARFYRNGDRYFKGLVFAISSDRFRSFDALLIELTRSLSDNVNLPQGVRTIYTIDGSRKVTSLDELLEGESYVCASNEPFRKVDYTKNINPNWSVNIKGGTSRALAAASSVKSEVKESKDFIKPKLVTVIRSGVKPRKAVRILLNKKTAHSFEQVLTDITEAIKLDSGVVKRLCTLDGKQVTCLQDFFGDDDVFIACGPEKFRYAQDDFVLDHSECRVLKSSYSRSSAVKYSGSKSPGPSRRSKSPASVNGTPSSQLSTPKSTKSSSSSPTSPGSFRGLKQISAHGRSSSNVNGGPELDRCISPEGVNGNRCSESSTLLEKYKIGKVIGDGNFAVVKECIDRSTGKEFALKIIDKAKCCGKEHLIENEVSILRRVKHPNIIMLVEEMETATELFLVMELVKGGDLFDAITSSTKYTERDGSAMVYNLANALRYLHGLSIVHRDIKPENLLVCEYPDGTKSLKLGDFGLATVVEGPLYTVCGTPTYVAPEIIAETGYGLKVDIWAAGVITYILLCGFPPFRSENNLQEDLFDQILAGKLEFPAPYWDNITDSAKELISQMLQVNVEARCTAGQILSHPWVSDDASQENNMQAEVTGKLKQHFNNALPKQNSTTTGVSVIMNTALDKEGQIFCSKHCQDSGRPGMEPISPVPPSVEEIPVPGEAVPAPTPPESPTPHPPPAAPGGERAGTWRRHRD
Chain of CSNK1G3 (human) (Q9Y6M4 whole entry, looked up): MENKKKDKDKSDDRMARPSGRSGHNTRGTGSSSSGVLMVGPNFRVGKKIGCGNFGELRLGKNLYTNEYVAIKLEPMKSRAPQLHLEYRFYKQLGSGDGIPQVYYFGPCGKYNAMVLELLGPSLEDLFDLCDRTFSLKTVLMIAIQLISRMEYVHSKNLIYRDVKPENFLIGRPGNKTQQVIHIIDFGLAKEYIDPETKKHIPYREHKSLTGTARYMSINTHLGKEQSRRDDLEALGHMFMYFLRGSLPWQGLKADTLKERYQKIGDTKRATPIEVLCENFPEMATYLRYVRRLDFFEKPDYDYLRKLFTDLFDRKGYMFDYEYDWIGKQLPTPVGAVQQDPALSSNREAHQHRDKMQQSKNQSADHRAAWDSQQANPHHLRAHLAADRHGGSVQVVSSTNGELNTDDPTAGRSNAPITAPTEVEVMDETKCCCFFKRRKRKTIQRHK
Chain of STK38 (human) (Q15208 whole entry, looked up): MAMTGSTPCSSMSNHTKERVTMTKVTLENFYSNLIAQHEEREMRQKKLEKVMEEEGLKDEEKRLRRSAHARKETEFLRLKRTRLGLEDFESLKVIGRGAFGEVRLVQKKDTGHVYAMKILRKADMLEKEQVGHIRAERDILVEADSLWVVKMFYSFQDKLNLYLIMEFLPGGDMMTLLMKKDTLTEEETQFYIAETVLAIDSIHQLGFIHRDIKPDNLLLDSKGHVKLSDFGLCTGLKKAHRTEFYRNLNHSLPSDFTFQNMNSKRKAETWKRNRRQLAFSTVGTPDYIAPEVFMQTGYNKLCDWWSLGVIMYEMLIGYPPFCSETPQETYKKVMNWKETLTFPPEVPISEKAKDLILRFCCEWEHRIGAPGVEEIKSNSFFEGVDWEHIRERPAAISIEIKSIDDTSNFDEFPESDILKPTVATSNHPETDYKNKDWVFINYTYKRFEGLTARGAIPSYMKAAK
Chain of PLK1 (human) (P53350 whole entry, looked up): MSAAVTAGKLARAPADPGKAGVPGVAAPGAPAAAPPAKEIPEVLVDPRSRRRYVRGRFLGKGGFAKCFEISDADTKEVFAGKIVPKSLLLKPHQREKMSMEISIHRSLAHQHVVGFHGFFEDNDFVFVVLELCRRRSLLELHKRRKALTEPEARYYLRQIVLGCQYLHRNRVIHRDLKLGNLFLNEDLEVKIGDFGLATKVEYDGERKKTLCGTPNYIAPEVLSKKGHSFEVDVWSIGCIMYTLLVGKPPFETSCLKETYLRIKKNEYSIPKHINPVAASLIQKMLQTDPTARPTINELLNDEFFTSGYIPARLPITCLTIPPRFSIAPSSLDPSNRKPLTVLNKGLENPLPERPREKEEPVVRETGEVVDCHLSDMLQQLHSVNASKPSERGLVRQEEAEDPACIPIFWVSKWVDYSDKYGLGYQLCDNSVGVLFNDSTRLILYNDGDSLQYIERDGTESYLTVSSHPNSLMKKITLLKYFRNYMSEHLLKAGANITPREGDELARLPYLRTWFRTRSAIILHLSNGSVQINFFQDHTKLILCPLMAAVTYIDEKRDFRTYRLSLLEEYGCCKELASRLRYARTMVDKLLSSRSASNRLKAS
Chain of AURKB (human) (Q96GD4 whole entry, looked up): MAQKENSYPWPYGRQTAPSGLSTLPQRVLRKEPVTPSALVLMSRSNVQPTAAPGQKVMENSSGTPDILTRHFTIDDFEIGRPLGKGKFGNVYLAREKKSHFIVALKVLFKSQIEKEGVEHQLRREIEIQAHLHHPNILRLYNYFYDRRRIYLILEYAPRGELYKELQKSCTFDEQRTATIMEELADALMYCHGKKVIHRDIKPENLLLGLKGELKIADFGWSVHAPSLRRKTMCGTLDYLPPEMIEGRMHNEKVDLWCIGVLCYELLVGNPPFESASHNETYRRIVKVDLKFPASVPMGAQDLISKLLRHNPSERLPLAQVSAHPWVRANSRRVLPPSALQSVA
Chain of CAMK2G (human) (Q13555 whole entry, looked up): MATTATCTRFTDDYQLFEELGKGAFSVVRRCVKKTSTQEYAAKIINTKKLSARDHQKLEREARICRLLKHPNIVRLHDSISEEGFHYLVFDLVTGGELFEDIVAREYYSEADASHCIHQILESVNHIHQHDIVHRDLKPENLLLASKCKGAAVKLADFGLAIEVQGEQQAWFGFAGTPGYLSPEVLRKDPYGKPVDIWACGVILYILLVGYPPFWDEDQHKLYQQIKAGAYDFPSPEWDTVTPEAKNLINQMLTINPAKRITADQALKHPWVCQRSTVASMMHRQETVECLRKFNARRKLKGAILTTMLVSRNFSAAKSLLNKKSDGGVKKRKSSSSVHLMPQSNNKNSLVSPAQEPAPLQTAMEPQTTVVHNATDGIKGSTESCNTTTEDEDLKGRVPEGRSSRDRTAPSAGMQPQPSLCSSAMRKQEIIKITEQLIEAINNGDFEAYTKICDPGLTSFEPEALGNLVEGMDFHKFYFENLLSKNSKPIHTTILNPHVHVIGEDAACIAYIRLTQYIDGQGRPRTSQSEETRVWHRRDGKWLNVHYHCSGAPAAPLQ
Chain of RPS6KA3 KD1 (human) (P51812 whole entry, looked up): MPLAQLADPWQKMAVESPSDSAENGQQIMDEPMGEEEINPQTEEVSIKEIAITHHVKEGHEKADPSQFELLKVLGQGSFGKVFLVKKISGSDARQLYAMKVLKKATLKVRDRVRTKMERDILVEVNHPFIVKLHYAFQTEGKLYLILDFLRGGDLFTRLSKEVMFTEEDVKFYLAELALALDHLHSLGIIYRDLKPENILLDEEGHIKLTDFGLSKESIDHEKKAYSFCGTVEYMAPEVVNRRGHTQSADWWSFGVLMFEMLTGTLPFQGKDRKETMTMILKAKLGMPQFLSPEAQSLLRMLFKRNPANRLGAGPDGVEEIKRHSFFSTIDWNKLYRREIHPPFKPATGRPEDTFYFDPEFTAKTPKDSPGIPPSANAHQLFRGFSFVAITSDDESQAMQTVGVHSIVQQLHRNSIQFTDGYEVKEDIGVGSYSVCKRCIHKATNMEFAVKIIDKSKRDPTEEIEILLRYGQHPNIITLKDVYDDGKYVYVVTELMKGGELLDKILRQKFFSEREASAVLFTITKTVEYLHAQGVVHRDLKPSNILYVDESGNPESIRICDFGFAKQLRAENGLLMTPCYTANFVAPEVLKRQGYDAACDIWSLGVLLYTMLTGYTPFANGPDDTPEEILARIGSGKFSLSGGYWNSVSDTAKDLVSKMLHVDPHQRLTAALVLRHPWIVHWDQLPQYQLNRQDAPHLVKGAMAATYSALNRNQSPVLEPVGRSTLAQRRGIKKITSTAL
Chain of MAP2K4 (human) (P45985 whole entry, looked up): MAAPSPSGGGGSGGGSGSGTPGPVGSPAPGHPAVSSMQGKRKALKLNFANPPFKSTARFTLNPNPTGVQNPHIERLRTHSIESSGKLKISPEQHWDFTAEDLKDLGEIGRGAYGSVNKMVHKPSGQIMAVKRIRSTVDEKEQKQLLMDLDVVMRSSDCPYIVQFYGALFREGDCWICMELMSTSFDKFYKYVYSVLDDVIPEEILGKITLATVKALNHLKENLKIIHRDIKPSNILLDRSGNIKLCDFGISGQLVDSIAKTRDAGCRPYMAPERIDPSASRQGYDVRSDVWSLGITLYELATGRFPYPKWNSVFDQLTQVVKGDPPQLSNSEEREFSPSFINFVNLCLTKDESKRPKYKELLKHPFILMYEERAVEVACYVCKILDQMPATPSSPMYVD

COCCNCCCn1c(C(=O)CF)c(-c2ccc(C)cc2)c2c(N)ncnc21
kinase still bound, per cent of control [1]: 100% | kinase still bound, per cent of control [2]: 100% | kinase still bound, per cent of control [3]: 98% | kinase still bound, per cent of control [4]: 82% | kinase still bound, per cent of control [5]: 89% | kinase still bound, per cent of control [6]: 88% | kinase still bound, per cent of control [7]: 100% | kinase still bound, per cent of control [8]: 100% | kinase still bound, per cent of control [9]: 100% | kinase still bound, per cent of control [10]: 95% | kinase still bound, per cent of control [11]: 100% | kinase still bound, per cent of control [12]: 72% | kinase still bound, per cent of control [13]: 100% | kinase still bound, per cent of control [14]: 100% | kinase still bound, per cent of control [15]: 97% | kinase still bound, per cent of control [16]: 96% | kinase still bound, per cent of control [17]: 70% | kinase still bound, per cent of control [18]: 92% | kinase still bound, per cent of control [19]: 100% | kinase still bound, per cent of control [20]: 100% | kinase still bound, per cent of control [21]: 100% | kinase still bound, per cent of control [22]: 96% | kinase still bound, per cent of control [23]: 84% | kinase still bound, per cent of control [24]: 100% | kinase still bound, per cent of control [25]: 100% | kinase still bound, per cent of control [26]: 100% | kinase still bound, per cent of control [27]: 100% | kinase still bound, per cent of control [28]: 100% | kinase still bound, per cent of control [29]: 89% | kinase still bound, per cent of control [30]: 78% | kinase still bound, per cent of control [31]: 62% | kinase still bound, per cent of control [32]: 95% | kinase still bound, per cent of control [33]: 100% | kinase still bound, per cent of control [34]: 98% | kinase still bound, per cent of control [35]: 100% | kinase still bound, per cent of control [36]: 100% | kinase still bound, per cent of control [37]: 99% | kinase still bound, per cent of control [38]: 100% | kinase still bound, per cent of control [39]: 97% | kinase still bound, per cent of control [40]: 77% | kinase still bound, per cent of control [41]: 78% | kinase still bound, per cent of control [42]: 100% | kinase still bound, per cent of control [43]: 97%
